# Test results published in ChEMBL document CHEMBL3872242, “Anti-inflammatory tetraquinane diterpenoids from a Crinipellis species” (Bioorg Med Chem, 2017).
# Active and inactive are the calls of the source. The calls are words filed in the database; no cut-off is given here.
# Tests used:
# [1] = system: MONO-MAC-6; test: Inhibition of IL-23 mRNA expression in LPS/INF-gamma stimulated human MONO-MAC-6 cells at 16.54 uM preincubated for 1 hr followed by LPS/INF-gamma stimulation measured after 16 hrs; type: functional, cell-based
# [2] = Down regulation of IL-6 mRNA expression in LPS/INF-gamma stimulated human MONO-MAC-6 cells at 16.54 uM preincubated for 1 hr followed by LPS/INF-gamma stimulation measured after 4 hrs by quantitative RT-PCR analysis; type: functional, cell-based
# [3] = system: MONO-MAC-6; test: Inhibition of TNF-alpha mRNA expression in LPS/INF-gamma stimulated human MONO-MAC-6 cells at 16.54 uM preincubated for 1 hr followed by LPS/INF-gamma stimulation measured after 16 hrs; type: functional, cell-based
# [4] = Effect on GAPDH mRNA expression in human MONO-MAC-6 cells at 3.31 to 16.54 uM preincubated for 1 hr followed by LPS/INF-gamma stimulation measured after 4 hrs by quantitative RT-PCR analysis; type: ADME, cell-based; conditions: mono-mac-6, 4 h
# [5] = Down regulation of IL-8 mRNA expression in LPS/INF-gamma stimulated human MONO-MAC-6 cells at 16.54 uM preincubated for 1 hr followed by LPS/INF-gamma stimulation measured after 4 hrs by quantitative RT-PCR analysis; type: functional, cell-based
# [6] = Down regulation of TNF-alpha mRNA expression in LPS/INF-gamma stimulated human MONO-MAC-6 cells at 16.54 uM preincubated for 1 hr followed by LPS/INF-gamma stimulation measured after 4 hrs by quantitative RT-PCR analysis; type: functional, cell-based
# [7] = system: MONO-MAC-6; test: Inhibition of human THP1 cells derived IL-8 promoter dependent transcription activity expressed in LPS/INF-gamma stimulated human MONO-MAC-6 cells measured after 4 hrs by luciferase reporter gene assay; type: functional, cell-based; conditions: MONO-MAC-6, 4 h
# [8] = Down regulation of CCL2 mRNA expression in LPS/INF-gamma stimulated human MONO-MAC-6 cells at 16.54 uM preincubated for 1 hr followed by LPS/INF-gamma stimulation measured after 4 hrs by quantitative RT-PCR analysis; type: functional, cell-based
# [9] = system: MONO-MAC-6; test: Inhibition of CXCL10 mRNA expression in LPS/INF-gamma stimulated human MONO-MAC-6 cells at 16.54 uM preincubated for 1 hr followed by LPS/INF-gamma stimulation measured after 16 hrs; type: functional, cell-based
# [10] = Inhibition of NF-kappaB (unknown origin) expressed in LPS/INF-gamma-stimulated human MONO-MAC-6 cells measured after 4 hrs by luciferase reporter gene assay; type: cell-based; conditions: MONO-MAC-6, 4 h
# [11] = system: MONO-MAC-6; test: Inhibition of IL-8 mRNA expression in LPS/INF-gamma stimulated human MONO-MAC-6 cells at 16.54 uM preincubated for 1 hr followed by LPS/INF-gamma stimulation measured after 16 hrs; type: functional, cell-based
# [12] = system: MONO-MAC-6; test: Inhibition of LPS/INF-gamma induced CXCL10 promoter dependent transcription activity in human MONO-MAC-6 cells measured after 4 hrs by luciferase reporter gene assay; type: functional
# [13] = system: MONO-MAC-6; test: Inhibition of CXCL11 mRNA expression in LPS/INF-gamma stimulated human MONO-MAC-6 cells at 16.54 uM preincubated for 1 hr followed by LPS/INF-gamma stimulation measured after 16 hrs; type: functional, cell-based
# [14] = system: MONO-MAC-6; test: Inhibition of CXCL1 mRNA expression in LPS/INF-gamma stimulated human MONO-MAC-6 cells at 16.54 uM preincubated for 1 hr followed by LPS/INF-gamma stimulation measured after 16 hrs; type: functional, cell-based
# [15] = Inhibition of IRF (unknown origin) expressed in LPS/INF-gamma-stimulated human MONO-MAC-6 cells assessed as reduction in ISRE dependent transcription activity measured after 4 hrs by luciferase reporter gene assay; type: cell-based; conditions: MONO-MAC-6, 4 h
# [16] = Effect on constitutive activity of EF-1alpha expressed in human MONO-MAC-6 cells up to 50 uM measured after 4 hrs by luciferase reporter gene assay; type: ADME, cell-based; conditions: mono-mac-6, 4 h
# [17] = Cytotoxicity against human MONO-MAC-6 cells up to 50 uM measured after 24 hrs by XTT assay; type: toxicity, cell-based; conditions: mono-mac-6, 24 h
# [18] = Down regulation of COX-2 mRNA expression in LPS/INF-gamma stimulated human MONO-MAC-6 cells at 16.54 uM preincubated for 1 hr followed by LPS/INF-gamma stimulation measured after 4 hrs by quantitative RT-PCR analysis; type: functional, cell-based
# [19] = system: MONO-MAC-6; test: Inhibition of CCL3 mRNA expression in LPS/INF-gamma stimulated human MONO-MAC-6 cells at 16.54 uM preincubated for 1 hr followed by LPS/INF-gamma stimulation measured after 16 hrs; type: functional, cell-based
# [20] = system: MONO-MAC-6; test: Inhibition of IL-6 mRNA expression in LPS/INF-gamma stimulated human MONO-MAC-6 cells at 16.54 uM preincubated for 1 hr followed by LPS/INF-gamma stimulation measured after 16 hrs; type: functional, cell-based
# [21] = system: MONO-MAC-6; test: Inhibition of CCL1 mRNA expression in LPS/INF-gamma stimulated human MONO-MAC-6 cells at 16.54 uM preincubated for 1 hr followed by LPS/INF-gamma stimulation measured after 16 hrs; type: functional, cell-based
# [22] = Downregulation of CXCL10 mRNA expression in human MONO-MAC-6 cells at 16.54 uM preincubated for 1 hr followed by LPS/INF-gamma stimulation measured after 4 hrs by quantitative RT-PCR analysis; type: functional, cell-based
compound,measurement,setting,value
C=C[C@H]1CC[C@]23C[C@@H]4[C@H](C)C(=O)[C@H]5O[C@]54[C@@]2(C)C[C@H](O)[C@]13C,inhibition,[1],Active
same,Activity,[2],Active
same,inhibition,[3],Active
same,Activity,[4],Non-Toxic
same,Activity,[5],Active
same,Activity,[6],Active
same,IC50,[7],1300 to 1500 nM
same,Activity,[8],Active
same,inhibition,[9],Active
same,IC50,[10],2700 to 3000 nM
same,inhibition,[11],Active
same,inhibition,[12],Dose-dependent effect
same,inhibition,[13],Active
same,inhibition,[14],Active
same,IC50,[15],1000 to 1200 nM
same,Activity,[16],Non-Toxic
same,Activity,[17],Non-Toxic
same,Activity,[18],Active
same,inhibition,[19],Active
same,inhibition,[20],Active
same,inhibition,[21],Active
same,Activity,[22],Active
